Laboratory results taken from BigSolDB 2.1.

O=c1ccc(-c2ccccc2)n[nH]1
solubility (mole fraction)
Details	278.15 K	283.15 K	288.15 K	293.15 K	298.15 K	303.15 K	308.15 K	313.15 K	318.15 K
in ethanol	0.00242	0.00289	0.00342	0.00402	0.00466	0.00547	0.00637	0.00736	0.00846
in ethylene glycol	0.00304	0.00369	0.00445	0.00536	0.00646	0.0076	0.00905	0.0106	0.0124
in isopropanol	0.00411	0.00489	0.00579	0.00684	0.00795	0.0094	0.0109	0.0126	0.0142
in methanol	0.00124	0.00153	0.00183	0.0022	0.00265	0.00309	0.00365	0.00432	0.00502
in water	2.53e-06	3.14e-06	3.86e-06	4.72e-06	5.84e-06	7.08e-06	8.51e-06	1.02e-05	1.22e-05
